Several values for one entry are separate records, joined by “and”; a condition that tells them apart may be missing. Equal entries are not always repeated. Records with an inconclusive call do not appear. Numbered stars: 1 amine (or outer) side, 2 acyl side, 3 side chain; on linkers, the order of the positions; unused ones are H or OH. Bridge positions count the residues as written; N and C are the ends. Square brackets hold non-standard residues; d marks the D form. Peptide text beside a SMILES is read from it. I, II: the chains in the order shown. Actinocin(9to1) = Cc1c2oc3c(C)ccc(C(=O)[*:1])c3nc-2c(C(=O)[*:2])c(N)c1=O; aThr = C[C@H](O)[C@H](N)C(=O)O; NMeV = CN[C@H](C(=O)O)C(C)C; Sar = CNCC(=O)O
System: nude mice, LX-1 lung xenograft intrarenal, tumor weight T/C
Experiment: NCI In Vivo Anticancer Drug Screen. Data for tumor model Human Lung LX-1 Xenograft (intrarenal inoculation) in NU/NU Swiss (nude) mice
Conditions: endpoint: mean tumor weight change, higher = larger tumour
Procedure: The antitumor activity of compounds was measured in mice bearing transplantable tumors. Survival or tumor size were measured and the results are expressed as the measurement made in the treated group (T) divided by the measurement made in the vehicle treated control group (C). The tumor model used in this assay is Human Lung LX-1 Xenograft (intrarenal inoculation) in NU/NU Swiss (nude) mice

[1] = dose: 100.0 mg/kg/injection, schedule: Q04DX003 (sc), vehicle: suspension in saline
[2] = dose: 100.0 mg/kg/injection, schedule: Q04DX003 (sc), vehicle: Klucel (hydroxypropylcellulose) (HPC)
[3] = dose: 300.0 mg/kg/injection, schedule: Q04DX003 (sc), vehicle: Klucel (hydroxypropylcellulose) (HPC)

N=C(N)SCc1c2ccccc2c(CSC(=N)N)c2ccccc12
T/C [1]: 104 % of control
T/C (dose: 400.0 mg/kg/injection, schedule: Q04DX003 (sc), vehicle: suspension in saline): 93 % of control
T/C (dose: 800.0 mg/kg/injection, schedule: Q04DX003 (sc), vehicle: suspension in saline): 96 % of control

N=C(N)SCc1cccc2c(=O)cc(-c3ccccc3)oc12
T/C (dose: 300.0 mg/kg/injection, schedule: Q04DX003 (sc), vehicle: suspension in saline): 51 % of control
T/C (dose: 600.0 mg/kg/injection, schedule: Q04DX003 (sc), vehicle: suspension in saline): 39 % of control
T/C (dose: 1200.0 mg/kg/injection, schedule: Q04DX003 (sc), vehicle: suspension in saline): 63 % of control

CS(=O)(=O)c1ncc(Br)cn1
T/C (dose: 75.0 mg/kg/injection, schedule: Q04DX003 (sc), vehicle: saline with Tween-80): 100 % of control
T/C (dose: 150.0 mg/kg/injection, schedule: Q04DX003 (sc), vehicle: saline with Tween-80): 57 % of control
T/C (dose: 300.0 mg/kg/injection, schedule: Q04DX003 (sc), vehicle: saline with Tween-80): 84 % of control

CC(=O)OCC1OC(OC(C)=O)C(NC(=O)N(CCCl)N=O)C(OC(C)=O)C1OC(C)=O (stereo unspecified)
T/C (dose: 12.0 mg/kg/injection, schedule: Q04DX003 (sc), vehicle: Klucel (hydroxypropylcellulose) (HPC)): 36 % of control
T/C (dose: 24.0 mg/kg/injection, schedule: Q04DX003 (sc), vehicle: Klucel (hydroxypropylcellulose) (HPC)): 25 % of control

O=P1(N(CCCl)CCCl)NCCCO1 (stereo unspecified)
T/C (dose: 3.13 mg/kg/injection, schedule: Q01DX010 (sc), vehicle: saline): 76 % of control
T/C (dose: 6.25 mg/kg/injection, schedule: Q01DX010 (ip), vehicle: saline): 48 % of control
T/C (dose: 6.25 mg/kg/injection, schedule: Q01DX010 (sc), vehicle: saline): 85 % of control
T/C (dose: 12.5 mg/kg/injection, schedule: Q01DX010 (ip), vehicle: saline): 29 % of control
T/C (dose: 20.8 mg/kg/injection, schedule: Q04DX003 (ip), vehicle: saline): 151 % of control
T/C (dose: 25.0 mg/kg/injection, schedule: Q01DX010 (ip), vehicle: saline): 56 % of control
T/C (dose: 41.66 mg/kg/injection, schedule: Q04DX003 (ip), vehicle: saline): 51 % of control
T/C (dose: 41.66 mg/kg/injection, schedule: Q04DX003 (sc), vehicle: saline): 44 % of control
T/C (dose: 50.0 mg/kg/injection, schedule: Q04DX003 (sc), vehicle: suspension in saline): 87 % of control and 92 % of control
T/C (dose: 83.33 mg/kg/injection, schedule: Q04DX003 (sc), vehicle: saline): 20 % of control
T/C (dose: 100.0 mg/kg/injection, schedule: Q04DX003 (sc), vehicle: saline): 28 % of control
T/C [1]: 70 % of control and 90 % of control
T/C (dose: 200.0 mg/kg/injection, schedule: Q04DX003 (sc), vehicle: saline): 13 % of control
T/C (dose: 200.0 mg/kg/injection, schedule: Q04DX003 (sc), vehicle: suspension in saline): 42 % of control

COc1cc2cc(c1Cl)N(C)C(=O)CC(OC(=O)CC(C)C)C1(C)OC1C(C)C1CC(O)(NC(=O)O1)C(OC)/C=C/C=C(C)C2 (stereo unspecified)
T/C (dose: 12.5 micrograms/kg/injection, schedule: Q01DX010 (sc), vehicle: saline + alcohol): 73 % of control
T/C (dose: 25.0 micrograms/kg/injection, schedule: Q01DX010 (sc), vehicle: saline + alcohol): 59 % of control
T/C (dose: 50.0 micrograms/kg/injection, schedule: Q01DX010 (sc), vehicle: saline + alcohol): 107 % of control

O=Cc1ccc(O)c(O)c1
T/C (dose: 100.0 mg/kg/injection, schedule: Q04DX003 (sc), vehicle: saline with Tween-80): 172 % of control
T/C (dose: 200.0 mg/kg/injection, schedule: Q04DX003 (sc), vehicle: saline with Tween-80): 100 % of control
T/C (dose: 400.0 mg/kg/injection, schedule: Q04DX003 (sc), vehicle: saline with Tween-80): 86 % of control
T/C (dose: 800.0 mg/kg/injection, schedule: Q04DX003 (sc), vehicle: saline with Tween-80): 73 % of control

COc1nc(=O)n(C2C=CC(=O)O2)cc1F (stereo unspecified)
T/C (dose: 25.0 mg/kg/injection, schedule: Q04DX003 (sc), vehicle: Klucel (hydroxypropylcellulose) (HPC)): 66 % of control
T/C (dose: 50.0 mg/kg/injection, schedule: Q04DX003 (sc), vehicle: Klucel (hydroxypropylcellulose) (HPC)): 54 % of control
T/C [2]: 37 % of control

CN(Cc1cnc2nc(N)nc(N)c2n1)c1c(Cl)cc(C(=O)NC(CCC(=O)O)C(=O)O)cc1Cl (stereo unspecified)
T/C (dose: 12.5 mg/kg/injection, schedule: Q01DX010 (sc), vehicle: Klucel (hydroxypropylcellulose) (HPC)): 73 % of control
T/C (dose: 25.0 mg/kg/injection, schedule: Q01DX010 (sc), vehicle: Klucel (hydroxypropylcellulose) (HPC)): 48 % of control
T/C (dose: 50.0 mg/kg/injection, schedule: Q01DX010 (sc), vehicle: Klucel (hydroxypropylcellulose) (HPC)): 45 % of control

CCNC(=O)[B-][N+](C)(C)C
T/C [2]: 108 % of control
T/C (dose: 200.0 mg/kg/injection, schedule: Q04DX003 (sc), vehicle: Klucel (hydroxypropylcellulose) (HPC)): 73 % of control
T/C (dose: 400.0 mg/kg/injection, schedule: Q04DX003 (sc), vehicle: Klucel (hydroxypropylcellulose) (HPC)): 48 % of control

COc1cccc2c1C(=O)c1c(O)c3c(c(O)c1C2=O)C[C@@](O)(/C(C)=N/NC(=O)c1ccccc1)C[C@@H]3OC1CC(N)C(O)C(C)O1 (stereo partly specified)
T/C (dose: 2.5 mg/kg/injection, schedule: Q04DX003 (sc), vehicle: water): 113 % of control
T/C (dose: 10.0 mg/kg/injection, schedule: Q04DX003 (sc), vehicle: water): 68 % of control and 71 % of control and 93 % of control
T/C (dose: 18.75 mg/kg/injection, schedule: Q04DX003 (sc), vehicle: water): 57 % of control
T/C (dose: 20.0 mg/kg/injection, schedule: Q04DX003 (sc), vehicle: water): 69 % of control and 79 % of control and 87 % of control
T/C (dose: 37.5 mg/kg/injection, schedule: Q04DX003 (sc), vehicle: water): 36 % of control
T/C (dose: 40.0 mg/kg/injection, schedule: Q04DX003 (sc), vehicle: water): 71 % of control
T/C (dose: 75.0 mg/kg/injection, schedule: Q04DX003 (sc), vehicle: water): 18 % of control
T/C (dose: 80.0 mg/kg/injection, schedule: Q04DX003 (sc), vehicle: water): 79 % of control

CC[C@](O)(C(=O)O)c1cc2n(c(=O)c1CO)Cc1cc3ccccc3nc1-2
T/C (dose: 16.0 mg/kg/injection, schedule: Q04DX003 (sc), vehicle: saline): -5 % of control
T/C (dose: 31.25 mg/kg/injection, schedule: Q04DX003 (sc), vehicle: saline): 25 % of control
T/C (dose: 62.5 mg/kg/injection, schedule: Q04DX003 (sc), vehicle: saline): 1 % of control
T/C (dose: 125.0 mg/kg/injection, schedule: Q04DX003 (sc), vehicle: saline): -48 % of control

Cc1c2oc3c(C)ccc(C(=O)N[C@@H]4C(=O)N[C@H](C(C)C)C(=O)N5CCC[C@H]5C(=O)N(C)CC(=O)N(C)[C@@H](C(C)C)C(=O)O[C@H]4C)c3nc-2c(C(=O)N[C@@H]2C(=O)N[C@H](C(C)C)C(=O)N3CCC[C@H]3C(=O)N(C)CC(=O)N(C)[C@@H](C(C)C)C(=O)O[C@H]2C)c(N)c1=O (I: [aThr][dV]P[Sar][NMeV] / II: [aThr][dV]P[Sar][NMeV]; ester I:1-I:C, II:1-II:C; linker I:N-II:N via Actinocin(9to1))
T/C (dose: 100.0 micrograms/kg/injection, schedule: Q01DX010 (sc), vehicle: saline): 13 % of control and 24 % of control
T/C (dose: 200.0 micrograms/kg/injection, schedule: Q01DX010 (sc), vehicle: saline): 13 % of control

CCC1=C[C@H]2CN(CCc3c([nH]c4ccccc34)[C@@](C(=O)OC)(c3cc4c(cc3OC)N(C)[C@H]3[C@@](O)(C(=O)OC)[C@H](OC(C)=O)[C@]5(CC)C=CCN6CC[C@]43[C@@H]65)C2)C1
T/C (dose: 6.0 mg/kg/injection, schedule: Q04DX003 (sc), vehicle: water): 106 % of control
T/C (dose: 12.0 mg/kg/injection, schedule: Q04DX003 (sc), vehicle: water): 89 % of control

COc1c(O)c2c(c3cc(C(=O)N4CCc5c4c(O)c(OC)c4[nH]c(C(=O)N6CC7CC78C6=CC(=O)c6[nH]cc(C)c68)cc54)[nH]c13)CCN2C(N)=O (stereo unspecified)
T/C (dose: 6.25 micrograms/kg/injection, schedule: Q01DX010 (sc), vehicle: DMSO): 121 % of control
T/C (dose: 12.5 micrograms/kg/injection, schedule: Q01DX010 (sc), vehicle: DMSO): 107 % of control
T/C (dose: 25.0 micrograms/kg/injection, schedule: Q01DX010 (sc), vehicle: DMSO): 68 % of control
T/C (dose: 50.0 micrograms/kg/injection, schedule: Q01DX010 (sc), vehicle: DMSO): 66 % of control

CC1(C)CC(=O)C(CSC(=O)c2ccccc2)C(=O)C1
T/C (dose: 150.0 mg/kg/injection, schedule: Q04DX003 (sc), vehicle: Klucel (hydroxypropylcellulose) (HPC)): 102 % of control
T/C [3]: 119 % of control

COc1cc(C(=O)c2cocc2C(=O)c2ccc3c(c2)OCO3)cc(OC)c1OC
T/C [3]: 160 % of control
T/C (dose: 600.0 mg/kg/injection, schedule: Q04DX003 (sc), vehicle: Klucel (hydroxypropylcellulose) (HPC)): 80 % of control
T/C (dose: 1200.0 mg/kg/injection, schedule: Q04DX003 (sc), vehicle: Klucel (hydroxypropylcellulose) (HPC)): 94 % of control
